Experiment [1] addresses T1, Signal transducer and activator of transcription 1-alpha/beta (Homo sapiens) (UniProt P42224).
T1 sequence (whole entry): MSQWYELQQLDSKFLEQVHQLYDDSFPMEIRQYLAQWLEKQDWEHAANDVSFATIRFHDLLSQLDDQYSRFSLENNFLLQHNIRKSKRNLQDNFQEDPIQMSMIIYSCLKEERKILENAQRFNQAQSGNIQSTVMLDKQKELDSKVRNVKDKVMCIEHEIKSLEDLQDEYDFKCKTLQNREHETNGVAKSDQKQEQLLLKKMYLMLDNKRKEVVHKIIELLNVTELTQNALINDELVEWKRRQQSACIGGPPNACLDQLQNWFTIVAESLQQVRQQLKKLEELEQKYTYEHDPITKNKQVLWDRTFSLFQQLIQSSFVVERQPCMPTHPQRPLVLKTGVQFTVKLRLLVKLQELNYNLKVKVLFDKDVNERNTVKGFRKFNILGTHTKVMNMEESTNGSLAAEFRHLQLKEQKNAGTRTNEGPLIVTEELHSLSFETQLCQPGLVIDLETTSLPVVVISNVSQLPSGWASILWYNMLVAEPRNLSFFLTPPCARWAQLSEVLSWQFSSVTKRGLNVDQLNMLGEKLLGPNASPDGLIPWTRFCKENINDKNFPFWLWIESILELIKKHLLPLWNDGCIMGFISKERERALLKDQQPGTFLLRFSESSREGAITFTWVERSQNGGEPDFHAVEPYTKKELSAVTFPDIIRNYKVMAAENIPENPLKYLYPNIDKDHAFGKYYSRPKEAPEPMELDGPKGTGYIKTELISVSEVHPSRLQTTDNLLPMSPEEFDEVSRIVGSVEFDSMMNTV
Nature of the experiment: Inhibition of STAT1 (unknown origin) expressed in IFN-gamma induced human HeLa cells at 50 uM incubated for 1 hr by luciferase reporter gene assay. It is filed as cell-based.

Experiment [2] deals with Signal transducer and activator of transcription 3 (Homo sapiens, UniProt P40763). As to the kind of experiment: Inhibition of STAT3 (unknown origin) expressed in Oncostatin M induced human HeLa cells at 50 uM incubated for 1 hr by luciferase reporter gene assay. It is filed as cell-based.

The source made the active and inactive calls. No cut-off for these calls is given here.

As usually defined, the inhibition is the drop in the measured response relative to a control, in per cent.

Sequence of Signal transducer and activator of transcription 3 (P40763 whole entry): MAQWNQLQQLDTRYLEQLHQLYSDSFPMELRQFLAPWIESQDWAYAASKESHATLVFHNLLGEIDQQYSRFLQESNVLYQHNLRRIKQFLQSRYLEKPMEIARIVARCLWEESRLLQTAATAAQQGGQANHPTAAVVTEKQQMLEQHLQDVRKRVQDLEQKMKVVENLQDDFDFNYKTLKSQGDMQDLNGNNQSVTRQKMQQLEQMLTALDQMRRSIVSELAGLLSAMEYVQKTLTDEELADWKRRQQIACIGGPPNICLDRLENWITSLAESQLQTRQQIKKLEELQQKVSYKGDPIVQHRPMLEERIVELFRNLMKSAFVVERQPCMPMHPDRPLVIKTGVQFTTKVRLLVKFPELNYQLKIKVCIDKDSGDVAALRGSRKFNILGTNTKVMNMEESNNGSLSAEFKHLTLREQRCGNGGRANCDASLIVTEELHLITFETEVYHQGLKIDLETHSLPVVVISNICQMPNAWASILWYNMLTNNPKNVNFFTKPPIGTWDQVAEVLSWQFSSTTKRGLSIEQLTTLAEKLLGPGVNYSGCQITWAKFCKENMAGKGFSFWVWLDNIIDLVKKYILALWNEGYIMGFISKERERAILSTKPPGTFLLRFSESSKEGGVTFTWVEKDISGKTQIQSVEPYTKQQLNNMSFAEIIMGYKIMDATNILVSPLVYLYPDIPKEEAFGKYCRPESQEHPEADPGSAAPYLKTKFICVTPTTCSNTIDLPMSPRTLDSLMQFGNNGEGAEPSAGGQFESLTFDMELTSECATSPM

In the case of `COc1cc(CN(CC(=O)O)Cc2cc(Cl)c(OCc3ccc(C)cc3)c(OC)c2)cc(Cl)c1OCc1ccc(C)cc1`, the inhibition in experiment [1] stood at 46%; in experiment [2], 54.7%.

`COc1cc(CNc2nn[nH]n2)cc(Cl)c1OCc1ccc([N+](=O)[O-])cc1[N+](=O)[O-]` registered an inhibition in experiment [2] of 40.1%.

With `COc1cc(CNc2nn[nH]n2)cc(Cl)c1OCc1ccc(Cl)cc1`, the inhibition in experiment [1] was determined as 4.4%; in experiment [2], 37.6%.

On to `COc1cc(CNc2nn[nH]n2)cc(Cl)c1OCc1ccc(SC)cc1`, for which the inhibition in experiment [1] stood at 9.7%; in experiment [2], 0%.

On to `COc1cc(CNc2nn[nH]n2)cc(Cl)c1OCc1ccc(C(C)(C)C)cc1`, for which the inhibition in experiment [1] was determined as 0%; in experiment [2], 11.9%.

As to `COc1cc(CNc2nn[nH]n2)cc(Cl)c1OCc1ccc(OC(F)(F)F)cc1`, the inhibition in experiment [1] is 11.7%; in experiment [2] it was 51.1%.

For `COc1cc(CCc2nn[nH]n2)cc(Cl)c1OCc1ccc(C)cc1`, the inhibition is 0% in experiment [1] and 32.8% in experiment [2].

Regarding `COc1cc(CNc2nn[nH]n2)cc(Cl)c1OCc1ccc(OC2CCOCC2)cc1`, the inhibition was found to be 0% in experiment [1] and 4.1% in experiment [2].

In the case of `O=[N+]([O-])c1ccc(COc2c(O)cc(CNc3nn[nH]n3)cc2Cl)cc1`, the values for the inhibition in experiment [1] and in experiment [2] were 0.6% and 25.3%, respectively.

Regarding `COc1cc(CNc2nn[nH]n2)cc(Br)c1OCc1ccc(C)cc1`, the figures for the inhibition in experiment [1] and in experiment [2] were 11.8% and 58.8%, respectively.

Regarding `COc1cc(CC(C(=O)O)c2nn[nH]n2)cc(Cl)c1OCc1ccc(C)cc1` (centres undefined), the inhibition in experiment [1] was found to be 12.9%; in experiment [2], 40.2%.

For `COc1c(OCc2ccc([N+](=O)[O-])cc2)c(Cl)cc(CNc2nn[nH]n2)c1[N+](=O)[O-]`, the results for the inhibition in experiment [1] and in experiment [2] were 16.5% and 19.6%, respectively.

For the molecule `C=CCN1C(=O)C(CC(=O)Nc2ccc(C(=O)O)cc2)S/C1=N/c1cccc(Cl)c1` (centres undefined), the inhibition entry in experiment [2] is “Active”.

As for `C[C@@H]1CC(=O)c2c(ccc3c2C(=O)c2cccc(O)c2C3=O)C1`, the inhibition in experiment [1] stood at 13.1%; in experiment [2] it was 71%.

For `COc1cc(CN2C(=O)c3ccccc3C2=O)cc(Cl)c1OCc1ccc([N+](=O)[O-])cc1`, the inhibition in experiment [1] was 44.5%; in experiment [2], 95.9%.

On to `COc1cc(CNc2nn[nH]n2)cc(Cl)c1OCc1cccc(COc2ccccc2)c1`, for which the inhibition was 0% in experiment [1] and 0.7% in experiment [2].

With `COc1cc(CO)cc(Cl)c1OCc1ccc([N+](=O)[O-])cc1`, the inhibition in experiment [1] came to 43.6%; in experiment [2] it was 66.4%.

With `COc1cc(CC(C(=O)O)C(=O)O)cc(Cl)c1OCc1ccc(C)cc1`, the inhibition in experiment [1] stood at 24.5%; in experiment [2], 14.8%.

Regarding `COc1cc(CNc2nn[nH]n2)cc(Cl)c1OCc1ccc(C(F)(F)F)cc1`, the inhibition in experiment [1] amounted to 11.5%; in experiment [2], 48.5%.

Turning to `CC(C)COC(=O)CN1C(=O)S/C(=C\c2ccc(C(=O)O)cc2)C1=O`, in experiment [2], the inhibition result was “Active”.

As to `CCCOc1cc(COc2c(Cl)cc(CNc3nn[nH]n3)cc2OC)ccc1[N+](=O)[O-]`, the values for the inhibition in experiment [1] and in experiment [2] were 2.8% and 38.3%, respectively.

Turning to `COc1cc(CNc2nn[nH]n2)cc(Cl)c1OCc1ccc(-c2csc(C)n2)cc1`, the inhibition in experiment [1] and in experiment [2] was 0% each time.

With `COc1cc(CNc2nn[nH]n2)cc(I)c1OCc1ccc(C)cc1`, the inhibition turned out to be 16.5% in experiment [1] and 62.7% in experiment [2].

As to `COc1cc(CNc2nn[nH]n2)cc(Cl)c1OCc1ccc(C(=O)O)cc1`, the inhibition in experiment [1] was 12.9%; in experiment [2] it was 41.1%.

On to `COC(=O)Cc1c(C)c2ccc(OCc3nn[nH]n3)cc2oc1=O`, for which, in experiment [2], the inhibition result was “Active”.

For the molecule `COc1cc(CNc2nn[nH]n2)ccc1OCc1c(Cl)cccc1Cl`, the inhibition result in experiment [2] is “Active”.

As for `O=C(O)c1ccc(NC(=O)C2CC(=O)N(CCc3ccccc3)/C(=N/c3ccccc3)S2)cc1` (centres undefined), the inhibition entry in experiment [2] is “Active”.

`CC1CCc2c(sc3ncn(Cc4ccc(C(=O)O)cc4)c(=O)c23)C1` (centres undefined): the inhibition entry in experiment [2] was “Active”.

These data come from ChEMBL document CHEMBL3627693, “Novel aminotetrazole derivatives as selective STAT3 non-peptide inhibitors” (Eur J Med Chem, 2015).
